We go through 31 molecules from patent publication US5079358A, “6H-pyrazolo-[4,5,1-d,e]acridin-6-one derivatives having anit-tumor activity” (Kyowa Hakko Kogyo Co., Ltd., priority 1988, dated 1992).

Experiment [1] deals with human cancer cells (HeLaS3). Description: Inhibitory effect on growth of human cancer cells (HeLaS3). The settings on record: Neutral Red staining, 550 nm. The experiment is classed as cell-based. As to the method: Inhibitory effect on growth of human cancer cells (HeLaS3):
HeLaS, cells were suspended in a medium comprising MEM medium (Nissui Pharmaceutical Co., Ltd.) and 2 mM glutamine (hereinafter referred to as Medium A) to a concentration of 3×10^4 cells/ml. The cell suspension thus prepared was put into wells of a 96-well microtiter plate in an amount of 0.1 ml/well. The cells on the plate were incubated in a CO2 -incubater at 37° C. for 20 hours, and 0.05 ml of a sample containing a test compound and appropriately diluted with Medium A was added to each well. The cells were further incubated in the CO2 -incubater at 37° C. for 72 hours. After the culture supernatant was removed, a medium comprising Medium A and 0.02% Neutral Red was added to the residue in an amount of 0.1 ml/well, followed by incubation at 37° C. for one hour in the CO2 -incubater, whereby the cells were stained. The culture supernatant was removed and the residue was washed once with physiological saline solution. The pigment was extracted with 0.001 N-HCl/30%-ethanol, and the absorbance was determined at 550 nm with a microplate reader. The absorbance determined for intact cells was compared with that for the cells treated with the test compound of a known concentration, and the concentration of the test compound for inhibiting 50% growth of the cells (IC50) was calculated.

Another experiment relates to P388 ascites tumor. Description: Effect on P388 ascites tumor (increased life span). The settings on record: intraperitoneal, 24 hours after implantation, male CDF1 mouse. The experiment is classed as in vivo. The method, then: Effect on P388 ascites tumor:
P388 tumor cells (10^6 cells) were implanted intraperitoneally into a DBA/2 mouse and the cells were collected from the ascitic fluid of the animal 7 days after the implantation. The cells were ashed once with sterilized physiological saline solution and then suspended in a sterilized physiological saline solution to prepare a cell suspension containing 5×10^6 cells/ml. The suspension (0.2 ml) was intraperitoneally inoculated into a male CDF1 mouse aged 6 weeks. A test compound was dissolved in physiological saline solution and intraperitoneally administered to the animal 24 hours after implantation of the tumor cells. One test group comprised 5 mice. The mean survival time (days) of a test group which received a test compound at a specified concentration was calculated as T from survival days of animals in the group. ON the other hand, the mean survival time (days) of the non-administered group (C) was obtained in the same manner, and the increased life span (ILS %) was calculated as [(T-C)/C]×100 (%).

The mark [2] stands for this setting: Homo sapiens, HeLa S3, 72 hours at 37° C., read-out: IC50.

SMILES strings stand for the structures. Converted amounts (≈) assume the structure as drawn. Read-outs that look alike come from different tables or passages of the source. Some results are limits rather than exact numbers.

By IC50 is commonly meant the concentration that inhibits the measured activity by half. On to `COc1cccc2c1C(=O)c1c(O)c3c(c(O)c1C2=O)C[C@@](O)(C(=O)CO)C[C@@H]3O[C@H]1C[C@H](N)[C@H](O)[C@H](C)O1` [Adriamycin, reference compound], for which the IC50 in experiment [1] (setting [2]) lay in the range of 0.009 to 0.05 µg/mL (≈ 0.0166 to 0.092 µM). Same read-out and setting: for `CN(C)CCNC(=O)c1nn2c3ccccc3c(=O)c3cccc1c32` [Compound 3, 2-(2-Dimethylaminoethyl)aminocarbonyl-6H-pyrazolo[4,5,1-d,e]acridin-6-one] the value was 2.5 µg/mL (≈ 7.48 µM); for `COc1cccc2c1c(=O)c1cccc3c(C(=O)NCCN(C)C)nn2c31` [Compound 4, 7-Methoxy-2-(2-dimethylaminoethyl)aminocarbonyl-6H-pyrazolo[4,5,1-d,e]acridin-6-one], 2.98 µg/mL (≈ 8.18 µM). Regarding `O=C(NCCN1CCOCC1)c1nn2c3ccccc3c(=O)c3cccc1c32` [Compound 5, 2-(2-Morpholinoethyl)aminocarbonyl-6H-pyrazolo[4,5,1-d,e]acridin-6-one], the IC50 in experiment [1] (setting [2]) was 7.2 µg/mL (≈ 19.1 µM). Take `O=c1c2ccccc2n2nc(CN(CCO)CCO)c3cccc1c32` [Compound 7, 2-Bis(2-hydroxyethyl)aminomethyl-6H-pyrazolo[4,5,1-d,e]acridin-6-one]: the IC50 in experiment [1] (setting [2]) came to 8.89 µg/mL (≈ 26.4 µM). Same read-out and setting: for `O=c1c2ccccc2n2nc(CNCCN3CCOCC3)c3cccc1c32` [Compound 8, 2-(2-Morpholinoethyl)aminomethyl-6H-pyrazolo[4,5,1-d,e]acridin-6-one] the value was 4.9 µg/mL (≈ 13.5 µM).

As to `O=c1c2ccccc2n2nc(CN(CCCl)CCCl)c3cccc1c32` [Compound 9, 2-Bis(2-chloroethyl)aminomethyl-6H-pyrazolo[4,5,1-d,e]acridin-6-one], the “ILS (%)” value with P388 ascites tumor (dose 18.8 mg/kg) was 28%. In experiment [1] (72 hours at 37° C.), this molecule showed an IC50 of 0.92 µg/mL (≈ 2.46 µM). In the case of `Cc1nn2c3ccccc3c(=O)c3c(N)ccc1c32` [Compound 11, 5-Amino-2-methyl-6H-pyrazolo[4,5,1-d,e]acridin-6-one], the IC50 in experiment [1] (setting [2]) stood at 2.16 µg/mL (≈ 8.67 µM). Consider `NCCNCc1nn2c3ccccc3c(=O)c3c(N)ccc1c32` [Compound 15, 5-Amino-2-(2-aminoethyl]aminomethyl-6H-pyrazolo[4,5,1-d,e]acridin-6-one], for which the IC50 in experiment [1] (setting [2]) was determined as 0.71 µg/mL (≈ 2.31 µM). Still for that read-out and setting: the same measure for `Nc1ccc2c(CNCCNCCO)nn3c4ccccc4c(=O)c1c23` [Compound 16, 5-Amino-2-[2-(2-hydroxyethylamino)ethyl]aminomethyl-6H-[4,5,1-d,e]acridin-6-one]: 0.87 µg/mL (≈ 2.48 µM); for `Nc1ccc2c(CNCCN3CCOCC3)nn3c4ccccc4c(=O)c1c23` [Compound 17, 5-Amino-2-(2-morpholinoethyl)aminomethyl-6H-[4,5,1-d,e]-acridin-6-one]: 1.96 µg/mL (≈ 5.19 µM). A word on the ILS: it is how much longer treated animals lived than controls. High values mean a large benefit in survival, low ones a small benefit in survival. The molecule `NCCNCc1nn2c3ccccc3c(=O)c3c(NCCN)ccc1c32` [Compound 21, 5-(2-Aminoethyl)amino-2-(2-aminoethyl)aminomethyl-6H-pyrazolo[4,5,1-d,e]acridin-6-one] registered an ILS at 37.5 mg/kg with P388 ascites tumor (P388, ip, dose 37.5 mg/kg) of 50%. In turn, `NCCCNCc1nn2c3ccccc3c(=O)c3c(NCCCN)ccc1c32` [Compound 22, 5-(3-Aminopropyl)amino-2-(3-aminopropyl)aminomethyl-6H-pyrazolo[4,5,1-d,e]acridin-6-one] registered an ILS at 25 mg/kg with P388 ascites tumor (P388, ip) of 52%. The IC50 in experiment [1] (setting [2]) amounted to 0.078 µg/mL (≈ 0.206 µM). `CN(C)CCNCc1nn2c3ccccc3c(=O)c3c(NCCN(C)C)ccc1c32` [Compound 23, 5-(2-Dimethylaminoethyl)amino-2-(2-dimethylaminoethyl)aminomethyl-6H-pyrazolo[4,5,1-d,e]acridin-6-one]: the ILS at 50 mg/kg in the experiment on P388 ascites tumor (P388, ip) is 46%. As for `COc1cccc2c1c(=O)c1c(NCCN)ccc3c(CNCCN)nn2c31` [Compound 25, 5-(2-Aminoethyl)amino-2-(2-aminoethyl)aminomethyl-7-methoxy-6H-pyrazolo[4,5,1-d,e]acridin-6-one], the ILS at 25 mg/kg in the experiment on P388 ascites tumor (P388, ip) stood at 39%. As for `CN(C)CCNCc1nn2c3cccc(O)c3c(=O)c3c(NCCN(C)C)ccc1c32` [Compound 30, 5-(2-Dimethylaminoethyl)amino-2-(2-dimethylaminoethyl)aminomethyl-7-hydroxy-6H-pyrazolo[4,5,1-d,e]acridin-6-one], the ILS at 50 mg/kg with P388 ascites tumor (P388, ip) is 61%.

On to `CNCCCNCc1nn2c3ccccc3c(=O)c3c(NCCCNC)ccc1c32` [Compound 32, 5-(3-Methylaminopropyl)amino-2-(3-methylaminopropyl)aminomethyl-6H-pyrazolo[4,5,1-d,e]acridin-6-one], for which the half-maximal inhibitory concentration (IC50) in experiment [1] (setting [2]) came to 1.16 µg/mL (≈ 2.85 µM).

Take `CNCCNCc1nn2c3ccccc3c(=O)c3c(NCCNC)ccc1c32` [Compound 33, 5-(2-Methylaminoethyl)amino-2-(2-methylaminoethyl)aminomethyl-6H-pyrazolo[4,5,1-d,e]acridin-6-one]: in experiment [1] (setting [2]), the IC50 was 2.69 µg/mL (≈ 7.11 µM).

With `CCNCCNCc1nn2c3ccccc3c(=O)c3c(NCCNCC)ccc1c32` [Compound 34, 5-(2-Ethylaminoethyl)amino-2-(2-ethylaminoethyl)aminomethyl-6H-pyrazolo[4,5,1-d,e]acridin-6-one], the IC50 in experiment [1] (setting [2]) was 1.72 µg/mL (≈ 4.23 µM). On the same count and under the same terms, the same measure for `O=c1c2ccccc2n2nc(CNCCN3CCOCC3)c3ccc(NCCN4CCOCC4)c1c32` [Compound 35, 5-(2-Morpholinoethyl)amino-2-(2-morpholinoethyl)aminomethyl-6H-pyrazolo[4,5,1-d,e]acridin-6-one]: 3.37 µg/mL (≈ 6.87 µM).

Turning to `CCN(CC)CCNCc1nn2c3ccccc3c(=O)c3c(NCCN(CC)CC)ccc1c32` [Compound 36, 5-(2-Diethylaminoethyl)amino-2-(2-diethylaminoethyl)aminomethyl-6H-pyrazolo[4,5,1-d,e]acridin-6-one], in experiment [1] (setting [2]), the IC50 was found to be 3.1 µg/mL (≈ 6.7 µM). Still for that read-out and setting: for `NCCCCNCc1nn2c3ccccc3c(=O)c3c(NCCCCN)ccc1c32` [Compound 37, 5-(4-Aminobutyl)amino-2-(4-aminobutyl)aminomethyl-6H-pyrazolo[4,5,1-d,e]acridin-6-one] the value was 2.11 µg/mL (≈ 5.19 µM); for `CNCCNc1ccc2c(CN(C)CCN)nn3c4ccccc4c(=O)c1c23` [Compound 38, 2-[N-(2-aminoethyl)-N-methyl]aminomethyl-5-(2-methylaminoethyl)amino-6H-pyrazolo[4,5,1-d,e]acridin-6-one], 2.89 µg/mL (≈ 7.64 µM); for `CN(C)CCCNCc1nn2c3ccccc3c(=O)c3c(NCCCN(C)C)ccc1c32` [Compound 39, 5-(3-Dimethylaminopropyl)amino-2-(3-dimethylaminopropyl)aminomethyl-6H-pyrazolo[4,5,1-d,e]acridin-6-one], 8.33 µg/mL (≈ 19.2 µM). Still for that read-out and setting: the same measure for `CN(C)CCNCc1nn2c3cccc(O)c3c(=O)c3c(NCCNCCO)ccc1c32` [Compound 42]: 0.12 µg/mL (≈ 0.274 µM). With `NCCNc1ccc2c(CNCCSCCO)nn3c4cccc(O)c4c(=O)c1c23` [Compound 59, 5-(2-Aminoethyl)amino-7-hydroxy-2-[2-(2-hydroxyethylthio)ethyl]aminomethyl-6H-pyrazolo[4,5,1-d,e]acridin-6-one], in the experiment on P388 ascites tumor (P388, ip), the ILS at 12.5 mg/kg is more than 134%. For `NCCNc1ccc2c(CNCCOCCO)nn3c4cccc(O)c4c(=O)c1c23` [Compound 62, 5-(2-Aminoethyl)amino-7-hydroxy-2-[2-(2-hydroxyethyloxy)ethyl]aminomethyl-6H-pyrazolo[4,5,1-d,e]acridin-6-one], the half-inhibitory concentration (IC50) in experiment [1] (setting [2]) was found to be 0.0023 µg/mL (≈ 0.00559 µM).

For the molecule `O=c1c2c(O)cccc2n2nc(CNCCOCCO)c3ccc(NCCNCCO)c1c32` [Compound 66, 7-Hydroxy-5-[2-(2-hydroxyethylamino)ethyl]amino-2-[2-(2-hydroxyethyloxy)ethyl]aminomethyl-6H-pyrazolo[4,5,1-d,e]acridin-6-one], the ILS at 12.5 mg/kg with P388 ascites tumor (P388, ip) was more than 133%. The molecule `O=c1c2c(O)cccc2n2nc(CNCCO)c3ccc(Br)c1c32` [Compound 67, 5-Bromo-7-hydroxy-2-(2-hydroxyethyl)aminomethyl-6H-pyrazolo[4,5,1-d,e]acridin-6-one] displayed an ILS at 75 mg/kg with P388 ascites tumor (P388, ip, dose 75 mg/kg) of 31%. In turn, `CN(C)CCCNCc1nn2c3cccc(O)c3c(=O)c3c(NCCCN(C)C)ccc1c32` [Compound 70, 5-(3-Dimethylaminopropyl)amino-2-(3-dimethylaminopropyl)aminomethyl-7-hydroxy-6H-pyrazolo[4,5,1-d,e]acridin-6-one] came in with an ILS at 12.5 mg/kg in the experiment with P388 ascites tumor (P388, ip) of more than 112%.

Consider `CO[C@@]12[C@H](COC(N)=O)C3=C(C(=O)C(C)=C(N)C3=O)N1C[C@@H]1N[C@@H]12` [Mitomycin C, reference compound], for which, in the experiment on P388 ascites tumor (P388, ip, dose 4-6 mg/kg), the ILS at 4 mg/kg is 57 to 67%.
